Measurements published in patent US11667668B2, “Compositions and methods for treating CNS disorders” (Sage Therapeutics, Inc., priority 2017, dated 2023).

Target: rat brain cortical membranes ([35S]-TBPS binding; GABAA receptor)
Test: Steroid inhibition of [35S]-TBPS binding
Details: 3 nM [35S]-TBPS, in the presence of 5 mM GABA, 90 min at room temp
Procedure: [35S]-t-Butylbicyclophosphorothionate (TBPS) binding assays using rat brain cortical membranes in the presence of 5 mM GABA has been described (Gee et al, J. Pharmacol. Exp. Ther. 1987, 241, 346-353; Hawkinson et al, Mol. Pharmacol. 1994, 46, 977-985; Lewin, A. H et al., Mol. Pharmacol. 1989, 35, 189-194).
Briefly, cortices are rapidly removed following decapitation of carbon dioxide-anesthetized Sprague-Dawley rats (200-250 g). The cortices are homogenized in 10 volumes of ice-cold 0.32 M sucrose using a glass/teflon homogenizer and centrifuged at 1500×g for 10 min at 4° C. The resultant supernatants are centrifuged at 10,000×g for 20 min at 4° C. to obtain the P2 pellets. The P2 pellets are resuspended in 200 mM NaCl/50 mM Na—K phosphate pH 7.4 buffer and centrifuged at 10,000×g for 10 min at 4° C. This washing procedure is repeated twice and the pellets are resuspended in 10 volumes of buffer. Aliquots ([…]) of the membrane suspensions are incubated with 3 nM [35S]-TBPS and 5 mL aliquots of test drug dissolved in dimethyl sulfoxide (DMSO) (final 0.5%) in the presence of 5 mM GABA. The incubation is brought to a final volume of 1.0 mL with buffer. Nonspecific binding is determined in the presence of […] and ranged from 15 to 25%. […] Filter bound radioactivity is measured by liquid scintillation spectrometry. […]

Row | Compound | IC50
1 | [2H][C@]1(C(=O)Cn2cc(C#N)cn2)CC[C@H]2[C@@H]3CC[C@@H]4C[C@](C)(O)CC[C@@H]4[C@H]3CC[C@@]21C [Compound A10, 1-(2-((3R,5R,8R,9R,10S,13S,14S,17S)-3-hydroxy-3,13-dimethylhexadecahydro-1H-cyclopenta[a]phenanthren-17-yl-17-d)-2-oxoethyl)-1H-pyrazole-4-carbonitrile] | < 10 nM
2 | [2H]C([2H])([2H])[C@@]1(O)CC[C@H]2[C@H](CC[C@@H]3[C@@H]2CC[C@]2(C)[C@@H](C(=O)Cn4cc(C#N)cn4)CC[C@@H]32)C1 [Compound 1, 1-(2-((3R,5R,8R,9R,10S,13S,14S,17S)-3-hydroxy-13-methyl-3-(methyl-d3)hexadecahydro-1H-cyclopenta[a]phenanthren-17-yl)-2-oxoethyl)-1H-pyrazole-4-carbonitrile] | < 10 nM
